The molecules below were run against T1, SMYD3 (Homo sapiens, UniProt Q9H7B4) (assay: SMYD3 biochemical assay (MTase-Glo, MAP3K2 peptide substrate)). Conditions: Table 3; MTase assay, MAP3K2 peptide substrate; read-out: IC50.
T1 sequence (Q9H7B4 1-428): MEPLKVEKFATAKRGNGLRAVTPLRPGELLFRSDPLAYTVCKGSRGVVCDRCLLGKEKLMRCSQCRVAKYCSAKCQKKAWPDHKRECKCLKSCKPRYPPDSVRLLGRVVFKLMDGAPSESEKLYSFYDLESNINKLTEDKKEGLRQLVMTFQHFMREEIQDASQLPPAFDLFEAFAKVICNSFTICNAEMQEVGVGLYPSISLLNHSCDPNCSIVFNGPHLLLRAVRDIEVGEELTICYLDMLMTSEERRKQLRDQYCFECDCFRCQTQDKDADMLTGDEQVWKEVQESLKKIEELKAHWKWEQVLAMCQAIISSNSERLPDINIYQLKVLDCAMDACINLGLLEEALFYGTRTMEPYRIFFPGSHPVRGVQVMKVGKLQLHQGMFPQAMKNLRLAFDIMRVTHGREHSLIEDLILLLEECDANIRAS
Method: A SMYD3 enzymatic assay was developed using Promega's Methyltransferase-Glo™ reagents. In the assay, SMYD3 catalyzes the methylation of the MAP3K2 peptide substrate by transferring a methyl group from SAM to MAP3K2 peptide and further converts the SAM to SAH. The SMYD3 methyltransferase activity is measured based on the amount of SAH produced from the reaction through the use of coupling enzymes that convert the SAH to ATP. The MTase-Glo detection solution then catalyzes the formation of light from ATP.
A final concentration of 1.0 μM and 10 μM SAM and MAP3K2 peptide were added and further incubated for 30 min at room temperature before adding the MTase Glo and detection reagent. Reaction signals were detected using microplate readers on luminescent mode (Safire Tecan). The IC50 was determined by non-linear regression, using GraphPad Prism version, 5.03.

IC50 [nM]	SMILES
98	C[C@@H]1CN(C(=O)c2ccc3c(Cl)cc(-c4ccn(C)c4)nc3c2)CCN1C(=O)OCCCF [B234, 3-Fluoropropyl (R)-4-(4-chloro-2-(1-methyl-1H-pyrrol-3-yl)quinoline-7-carbonyl)-2-methylpiperazine-1-carboxylate]
150	CCCOC(=O)N1CCN(C(=O)c2ccc3c(Cl)cc(-c4cn[nH]c4)nc3c2)CC1 [B147, Propyl 4-(4-chloro-2-(1H-pyrazol-4-yl)quinoline-7-carbonyl)piperazine-1-carboxylate]
380	CCCOC(=O)N1CCN(C(=O)c2ccc3c(Cl)c4c(nc3c2)CC(CN)CC4)CC1 (centres unmarked) [A028, Propyl 4-(6-(aminomethyl)-9-chloro-5,6,7,8-tetrahydroacridine-3-carbonyl)piperazine-1-carboxylate]
1400	CCCOC(=O)N1CCN(C(=O)c2ccc3c(Cl)cc(C4(C)CC4)nc3c2)CC1 [B133, Propyl 4-(4-chloro-2-(1-methylcyclopropyl)quinoline-7-carbonyl)piperazine-1-carboxylate]
250	CCCOC(=O)N1CCN(C(=O)c2ccc3c(Cl)c4c(nc3c2)CCCC4)C(CO)C1 (centres unmarked) [A125, Propyl 4-(9-chloro-5,6,7,8-tetrahydroacridine-3-carbonyl)-3-(hydroxymethyl)piperazine-1-carboxylate]
210	CCCOC(=O)N1CCN(C(=O)c2ccc3c(Cl)c4c(nc3c2)CCC(CC(=O)OC)C4)C[C@@H]1C (stereo partly drawn) [A062, Propyl (2S)-4-(9-chloro-7-(2-methoxy-2-oxoethyl)-5,6,7,8-tetrahydroacridine-3-carbonyl)-2-methylpiperazine-1-carboxylate]
5500	CCCOC(=O)N1CCN(C(=O)c2ccc3c(Cl)c(C)c(-c4cccc(C#N)c4)nc3c2)CC1 [B032, Propyl 4-(4-chloro-2-(3-cyanophenyl)-3-methylquinoline-7-carbonyl)piperazine-1-carboxylate]
56	CCCOC(=O)N1CCN(C(=O)c2ccc3c(Cl)cc(-c4ccc5cn(C)nc5c4)nc3c2)CC1 [B196, Propyl 4-(4-chloro-2-(2-methyl-2H-indazol-6-yl)quinoline-7-carbonyl)piperazine-1-carboxylate]
690	CCCOC(=O)N1CCN(C(=O)c2ccc3c(Cl)c(C)c(-c4ccc(C)cc4)nc3c2)[C@H](C)C1 [B023, Propyl (R)-4-(4-chloro-3-methyl-2-(p-tolyl)quinoline-7-carbonyl)-3-methylpiperazine-1-carboxylate]
210	CCCOC(=O)N1CCN(C(=O)c2ccc3c(Cl)c4c(nc3c2)CCCC4)C(C#N)C1 (centres unmarked) [A116, Propyl 4-(9-chloro-5,6,7,8-tetrahydroacridine-3-carbonyl)-3-cyanopiperazine-1-carboxylate]
89	CCCOC(=O)N1CCN(C(=O)c2ccc3c(Cl)cc(-c4ccc(CN(C)C)s4)nc3c2)CC1 [B126, Propyl 4-(4-chloro-2-(5-((dimethylamino)methyl)thiophen-2-yl)quinoline-7-carbonyl)piperazine-1-carboxylate]
60	CCCOC(=O)N1CCN(C(=O)c2ccc3c(Cl)cc(C4CC4)nc3c2)C[C@H]1C [B079, Propyl (R)-4-(4-chloro-2-cyclopropylquinoline-7-carbonyl)-2-methylpiperazine-1-carboxylate]
77	CCCOC(=O)N1CCN(C(=O)c2ccc3c(Cl)cc(-c4ccc(N5CCOCC5)cc4)nc3c2)C[C@H]1C [B090, Propyl (R)-4-(4-chloro-2-(4-morpholinophenyl)quinoline-7-carbonyl)-2-methylpiperazine-1-carboxylate]
250	CCCOC(=O)N1CCN(C(=O)c2ccc3c(Cl)cc(-c4ccc5cnn(C)c5c4)nc3c2)CC1 [B195, Propyl 4-(4-chloro-2-(1-methyl-1H-indazol-6-yl)quinoline-7-carbonyl)piperazine-1-carboxylate]
540	CCCOC(=O)N1CCN(C(=O)c2ccc3c(Cl)cc(-c4cccs4)nc3c2)CC1 [B084, Propyl 4-(4-chloro-2-(thiophen-2-yl)quinoline-7-carbonyl)piperazine-1-carboxylate]
45	CCCOC(=O)N1CCN(C(=O)c2ccc3c(Cl)c(C)c(-c4cccc(N)c4)nc3c2)CC1 [B044, Propyl 4-(2-(3-aminophenyl)-4-chloro-3-methylquinoline-7-carbonyl)piperazine-1-carboxylate]

IC50 [nM]	SMILES
100	CCCOC(=O)N1CCN(C(=O)c2ccc3c(Cl)cc(-c4ccc5[nH]nc(C)c5c4)nc3c2)C[C@H]1C [B197, Propyl (R)-4-(4-chloro-2-(3-methyl-1H-indazol-5-yl)quinoline-7-carbonyl)-2-methylpiperazine-1-carboxylate]
6100	CCCOC(=O)N1CCN(C(=O)c2ccc3c(Cl)c4c(nc3c2)CCCC4)CC1C(=O)NC (centres unmarked) [A048, Propyl 4-(9-chloro-5,6,7,8-tetrahydroacridine-3-carbonyl)-2-(methylcarbamoyl)piperazine-1-carboxylate]
120	CCCOC(=O)N1CCN(C(=O)c2ccc3c(Cl)c4c(nc3c2)CC(c2ccccn2)CC4)CC1 (single isomer, unassigned) [A053 (Ent-1), Propyl (R/S)-4-(9-chloro-6-(pyridin-2-yl)-5,6,7,8-tetrahydroacridine-3-carbonyl)piperazine-1-carboxylate]
120	CCCOC(=O)N1CCN(C(=O)c2ccc3c(Cl)c4c(nc3c2)CC(c2ccnc(C)c2)CC4)C[C@H]1C (stereo partly drawn) [A122, Propyl (2R)-4-(9-chloro-6-(2-methylpyridin-4-yl)-5,6,7,8-tetrahydroacridine-3-carbonyl)-2-methylpiperazine-1-carboxylate]
1300	Cc1cc(C(=O)N2C3CCCC2CN(C(=O)c2ccc4c(Cl)c5c(nc4c2)CCCC5)C3)no1 [A039, (9-Chloro-5,6,7,8-tetrahydroacridin-3-yl)(9-(5-methylisoxazole-3-carbonyl)-3,9-diazabicyclo[3.3.1]nonan-3-yl)methanone]
360	CCCOC(=O)N1CCN(C(=O)c2ccc3c(Cl)cc(-c4ccc5nn[nH]c5c4)nc3c2)CC1 [B164, Propyl 4-(2-(1H-benzo[d][1,2,3]triazol-6-yl)-4-chloroquinoline-7-carbonyl)piperazine-1-carboxylate]
930	CCCOC(=O)N1CCN(C(=O)c2ccc3c(Cl)cc(-c4ccc(F)c(OC)c4)nc3c2)CC1 [B087, Propyl 4-(4-chloro-2-(4-fluoro-3-methoxyphenyl)quinoline-7-carbonyl)piperazine-1-carboxylate]
560	CCCOC(=O)N1CCN(C(=O)c2ccc3c(Cl)cc(-c4ccc(F)cc4)nc3c2)CC1 [B065, Propyl 4-(4-chloro-2-(4-fluorophenyl)quinoline-7-carbonyl)piperazine-1-carboxylate]
42	CCCOC(=O)N1CCN(C(=O)c2ccc3c(Cl)cc(-c4ccc(C(N)=O)cc4)nc3c2)C[C@@H]1C [B146, Propyl (S)-4-(2-(4-carbamoylphenyl)-4-chloroquinoline-7-carbonyl)-2-methylpiperazine-1-carboxylate]
130	CCCOC(=O)N1CCN(C(=O)c2ccc3c(Cl)cc(-c4ccc(C(=O)NC)cc4)nc3c2)[C@@H](C)C1 [B190, Propyl (S)-4-(4-chloro-2-(4-(methylcarbamoyl)phenyl)quinoline-7-carbonyl)-3-methylpiperazine-1-carboxylate]
1000	CCCOC(=O)N1CCN(C(=O)c2ccc3c(Cl)c4c(nc3c2)CC(C)CC4)CC1 (centres unmarked) [A022, Propyl 4-(9-chloro-6-methyl-5,6,7,8-tetrahydroacridine-3-carbonyl)piperazine-1-carboxylate]
80	CCCOC(=O)N1CCN(C(=O)c2ccc3c(Cl)cc(-c4ccc(C(N)=O)cc4)nc3c2)C[C@H]1C [B063, Propyl (R)-4-(2-(4-carbamoylphenyl)-4-chloroquinoline-7-carbonyl)-2-methylpiperazine-1-carboxylate]
1200	CCCOC(=O)N1CCN(C(=O)c2ccc3c(Cl)c4c(nc3c2)CC(CC(N)=O)CC4)CC1 (centres unmarked) [A077, Propyl 4-(6-(2-amino-2-oxoethyl)-9-chloro-5,6,7,8-tetrahydroacridine-3-carbonyl)piperazine-1-carboxylate]
13	C[C@@H]1CN(C(=O)c2ccc3c(Cl)cc(-c4ccn(C)c4)nc3c2)CCN1C(=O)c1cn(C2CC2)nn1 [D004, (R)-(4-Chloro-2-(1-methyl-1H-pyrrol-3-yl)quinolin-7-yl)(4-(1-cyclopropyl-1H-1,2,3-triazole-4-carbonyl)-3-methylpiperazin-1-yl)methanone]
190	CCCOC(=O)N1CCN(C(=O)c2ccc3c(Cl)cc(-c4cnn(CC(N)=O)c4)nc3c2)CC1 [B249, Propyl 4-(2-(1-(2-amino-2-oxoethyl)-1H-pyrazol-4-yl)-4-chloroquinoline-7-carbonyl)piperazine-1-carboxylate]

SMILES	IC50 [nM]
CCCOC(=O)N1CCN(C(=O)c2ccc3c(Cl)c4c(nc3c2)CCCC4)CC1COC(C)=O (centres unmarked) [A052, Propyl 2-(acetoxymethyl)-4-(9-chloro-5,6,7,8-tetrahydroacridine-3-carbonyl)piperazine-1-carboxylate]	1800

Reference: patent US20190071416A1, “COMPOUNDS FOR TREATMENT OF CANCER AND EPIGENETICS” (Agency For Science, Technology and Research, priority 2015, published 2019)
